Earlier results as cited in patent publication US7625919B2, “4-azasteroid derivatives as androgen receptor modulators” (priority 2002, dated 2009).

What was measured:
[1] = after 7 years of treatment
[2] = postmenopausal osteoporotic women, median of 22 months of treatment

Row | Compound | increase in spinal BMD [1] | reduction in nonvertebral fractures [2] | reduction in spine fractures [2]
1 | NCCCC(O)(P(=O)([O-])O)P(=O)(O)O.O.O.O.[Na+] [alendronate, (4-amino-1-hydroxybutylidene)-bis-phosphonate monosodium trihydrate] | 11% | – | –
2 | hPTH(1-34): human parathyroid hormone 1-34 fragment (SVSEIQLMHNLGKHLNSMERVEWLRKKLQDVHNF; Parathyroid hormone; UniProt P01270 32-65, looked up, fragment) | – | 54% | ≥ 65%
